Reference: ChEMBL document CHEMBL1127869, “Angiotensin II receptor antagonists: imidazoles and pyrroles bearing hydroxymethyl and carboxy substituents” (Bioorg Med Chem Lett, 1994)

Experiments:
Rattus norvegicus = assay: Compound tested for in vivo inhibitory dose against All-induced pressor response in normotensive, conscious rats; assay type: functional; conditions: read-out: ID50 (the source's name)
[1] = molecular target: T1, Type-1 angiotensin II receptor (Bos taurus, UniProt P25104); assay: Inhibition of [125l]-All binding to bovine adrenal cortex; assay type: tissue-based
T1 sequence (P25104 whole entry): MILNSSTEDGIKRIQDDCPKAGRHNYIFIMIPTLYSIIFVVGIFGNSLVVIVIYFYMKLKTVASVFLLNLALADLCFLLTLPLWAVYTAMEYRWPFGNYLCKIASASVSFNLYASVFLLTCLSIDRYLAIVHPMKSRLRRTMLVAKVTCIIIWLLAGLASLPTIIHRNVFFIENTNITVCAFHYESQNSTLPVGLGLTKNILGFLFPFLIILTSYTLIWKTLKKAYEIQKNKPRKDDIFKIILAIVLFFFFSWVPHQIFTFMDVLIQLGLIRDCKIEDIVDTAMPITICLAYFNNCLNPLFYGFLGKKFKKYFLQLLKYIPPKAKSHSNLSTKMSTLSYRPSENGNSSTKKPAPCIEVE

`CCCCc1nc(Cl)c(CO)n1Cc1ccc(-c2ccccc2C(=O)O)cc1` gave an ED50 (Rattus norvegicus) of 2.3 mg/kg and an IC50 [1] of 0.49 µM.

`CCCCc1nc(CO)c(C(=O)O)n1Cc1ccc(-c2ccccc2C(=O)O)cc1` showed an ED50 (Rattus norvegicus) of 0.22 mg/kg and an IC50 [1] of 0.065 µM.

`CCCc1nc(C(=O)O)c(C(=O)O)n1Cc1ccc(-c2ccccc2C(=O)O)cc1` gave an ED50 (Rattus norvegicus) of 0.67 mg/kg and an IC50 [1] of 0.32 µM.

In the case of `CCCc1nc(CO)c(C(=O)O)n1Cc1ccc(-c2ccccc2C(=O)O)cc1`, the ED50 (Rattus norvegicus) is reported as 0.069 mg/kg and the IC50 [1] is reported as 0.058 µM.

With `CCCc1nc(CO)c(C(=O)OCC)n1Cc1ccc(-c2ccccc2C(=O)O)cc1` the ED50 (Rattus norvegicus) was 1.5 mg/kg and the IC50 [1] was 0.84 µM.

Molecule `CCCCc1nc(Cl)c(C(=O)O)n1Cc1ccc(-c2ccccc2C(=O)O)cc1` has an ED50 (Rattus norvegicus) of 0.21 mg/kg.

`CCc1nc(CO)c(C(=O)O)n1Cc1ccc(-c2ccccc2C(=O)O)cc1` was tested, and the ED50 (Rattus norvegicus) was 0.27 mg/kg and the IC50 [1] was 0.15 µM.

`CCCc1cc(COC)c(C(=O)O)n1Cc1ccc(-c2ccccc2C(=O)O)cc1` showed an ED50 (Rattus norvegicus) of 4.2 mg/kg and an IC50 [1] of 4.5 µM.

With `CCCc1nc(CO)c(CO)n1Cc1ccc(-c2ccccc2C(=O)O)cc1` the ED50 (Rattus norvegicus) was 2.1 mg/kg and the IC50 [1] was 2.7 µM.

`CCCc1nc(C(=O)O)c(CO)n1Cc1ccc(-c2ccccc2C(=O)O)cc1` was tested, and the ED50 (Rattus norvegicus) was 8.8 mg/kg.

For `CCCc1cc(C(=O)O)c(CO)n1Cc1ccc(-c2ccccc2C(=O)O)cc1`, the ED50 (Rattus norvegicus) was 5.9 mg/kg and the IC50 [1] was 2.1 µM.

In the case of `CCCCc1nc(Cl)c(C(=O)O)n1Cc1ccc(-c2ccccc2-c2nn[nH]n2)cc1` [CARBOXYLIC ACID METABOLITE], the ED50 (Rattus norvegicus) is reported as 0.1 mg/kg and the IC50 [1] is reported as 0.022 µM.

For `CCCCc1nc(Cl)c(CO)n1Cc1ccc(-c2ccccc2-c2nnn[nH]2)cc1` [LOSARTAN], the ED50 (Rattus norvegicus) was 0.3 mg/kg and the IC50 [1] was 0.12 µM.
